Here are results for 17 compounds from patent US20250312352A1, “GLP-1R MODULATING COMPOUNDS” (Gilead Sciences, Inc., priority 2021, published 2025).

For this assay, the target named is T1, GLP-1R (Homo sapiens, UniProt P43220).
T1 construct: host or cells: CHO cells
T1 sequence (P43220 24-463): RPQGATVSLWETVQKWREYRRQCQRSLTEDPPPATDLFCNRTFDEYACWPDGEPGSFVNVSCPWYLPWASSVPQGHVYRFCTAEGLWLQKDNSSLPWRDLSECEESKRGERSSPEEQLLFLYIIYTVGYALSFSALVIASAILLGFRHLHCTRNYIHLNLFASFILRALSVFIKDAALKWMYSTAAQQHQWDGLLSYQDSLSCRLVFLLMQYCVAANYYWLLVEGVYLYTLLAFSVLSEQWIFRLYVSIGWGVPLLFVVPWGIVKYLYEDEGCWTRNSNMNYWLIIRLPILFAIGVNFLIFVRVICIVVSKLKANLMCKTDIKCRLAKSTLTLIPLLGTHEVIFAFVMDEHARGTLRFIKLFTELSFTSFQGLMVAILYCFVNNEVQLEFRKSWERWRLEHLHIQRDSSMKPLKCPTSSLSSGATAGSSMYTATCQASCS
Put plainly: GLP-1R activation cAMP assay (Assay 1 or Assay 2). Format: cell-based. Particulars: cAMP increase in CHO cells stably expressing GLP-1R; compounds run on one of the two cAMP assays. In a few lines: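 EC50 values come from a sigmoidal fit of HTRF-detected cAMP rise versus log agonist concentration. GLP-1R-expressing CHO cells, equilibrated 1 h at 37 °C in HBSS with HEPES and BSA, received a 10-point compound dose series for 30 min before detection.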
With `O=C(O)c1ccc2nc(Cc3cc(F)c(-c4cccc(OCc5cn6cc(Cl)ccc6n5)n4)cc3F)n(C[C@@H]3CCO3)c2c1` [Example 32, (S)-2-(4-(6-((6-chloroimidazo[1,2-a]pyridin-2-yl)methoxy)pyridin-2-yl)-2,5-difluorobenzyl)-1-(oxetan-2-ylmethyl)-1H-benzo[d]imidazole-6-carboxylic acid], the EC50 – broadly, the concentration at which the effect is half-maximal – was determined as 0.79 nM. That is a sub-nanomolar value.
As to `COCCn1c(Cc2cc(F)c(-c3cccc(OCc4ccc(-c5cnn(CCN6CCOCC6)c5)cc4F)n3)cc2F)nc2ccc(C(=O)O)cc21` [Example 227, 2-(2,5-difluoro-4-(6-((2-fluoro-4-(1-(2-morpholinoethyl)-1H-pyrazol-4-yl)benzyl)oxy)pyridin-2-yl)benzyl)-1-(2-methoxyethyl)-1H-benzo[d]imidazole-6-carboxylic acid], the response was half-maximal at 3.45 nM (EC50).
In turn, `COc1nnc(COc2nc(-c3cc(F)c(Cc4nc5ccc(C(=O)O)cc5n4[C@@H]4COCC4(C)C)cc3C)ccc2F)s1` [Example 258, (S)-1-(4,4-dimethyltetrahydrofuran-3-yl)-2-(2-fluoro-4-(5-fluoro-6-((5-methoxy-1,3,4-thiadiazol-2-yl)methoxy)pyridin-2-yl)-5-methylbenzyl)-1H-benzo[d]imidazole-6-carboxylic acid] came in with an EC50 of 0.483 nM.
In the case of `COCCn1c(Cc2cc(F)c(-c3cccc(OCc4ccc(C#CC5CN(C)C5)cc4F)n3)cc2F)nc2ccc(C(=O)O)cc21` [Example 234, 2-[[2,5-difluoro-4-[6-[[2-fluoro-4-[2-(1-methylazetidin-3-yl)ethynyl]phenyl]methoxy]-2-pyridyl]phenyl]methyl]-3-(2-methoxyethyl)benzimidazole-5-carboxylic acid] it was 5.9 nM; in that of `O=C(O)c1ccc2nc(Cc3cc(F)c(-c4ccc(F)c(OCc5ncc(C(F)F)s5)n4)cc3F)n(C[C@@H]3CCO3)c2c1` [Example 406, (S)-2-(4-(6-((5-(difluoromethyl)thiazol-2-yl)methoxy)-5-fluoropyridin-2-yl)-2,5-difluorobenzyl)-1-(oxetan-2-ylmethyl)-1H-benzo[d]imidazole-6-carboxylic acid], 0.385 nM; in that of `COc1nnc(COc2cccc(-c3cc(F)c(Cc4nc5ccc(C(=O)O)cc5n4[C@@H]4COCC4(C)C)c(F)c3F)n2)s1` [Example 273, (S)-1-(4,4-dimethyltetrahydrofuran-3-yl)-2-(2,3,6-trifluoro-4-(6-((5-methoxy-1,3,4-thiadiazol-2-yl)methoxy)pyridin-2-yl)benzyl)-1H-benzo[d]imidazole-6-carboxylic acid], 0.144 nM.
As for `O=C(O)c1ccc2nc(Cc3cc(F)c(-c4cccc(OCc5ncc(-c6ccns6)s5)n4)cc3F)n(C[C@@H]3CCO3)c2c1` [Example 100, (S)-2-(2,5-difluoro-4-(6-((5-(isothiazol-5-yl)thiazol-2-yl)methoxy)pyridin-2-yl)benzyl)-1-(oxetan-2-ylmethyl)-1H-benzo[d]imidazole-6-carboxylic acid], the EC50 stood at 0.09 nM.
In the case of `CC1(C)COC[C@H]1n1c(Cc2cc(F)c(-c3ccc(F)c(OCc4ncc(Cl)s4)n3)cc2F)nc2ccc(C(=O)O)cc21` [Example 255, (S)-2-(4-(6-((5-chlorothiazol-2-yl)methoxy)-5-fluoropyridin-2-yl)-2,5-difluorobenzyl)-1-(4,4-dimethyltetrahydrofuran-3-yl)-1H-benzo[d]imidazole-6-carboxylic acid] it was 0.366 nM; in that of `O=C(O)c1ccc2nc(Cc3cc(F)c(-c4cccc(OCc5cc(C(F)(F)F)co5)n4)cc3F)n(C[C@@H]3CCO3)c2c1` [Example 18, (S)-2-(2,5-difluoro-4-(6-((4-(trifluoromethyl)furan-2-yl)methoxy)pyridin-2-yl)benzyl)-1-(oxetan-2-ylmethyl)-1H-benzo[d]imidazole-6-carboxylic acid], 0.32 nM; in that of `Cn1nccc1NC(=O)c1cc(Cl)c(COc2cccc(-c3cc(F)c(Cc4nc5ccc(C(=O)O)cc5n4C[C@@H]4CCO4)cc3F)n2)cn1` [Example 196, (S)-2-(4-(6-((4-chloro-6-((1-methyl-1H-pyrazol-5-yl)carbamoyl)pyridin-3-yl)methoxy)pyridin-2-yl)-2,5-difluorobenzyl)-1-(oxetan-2-ylmethyl)-1H-benzo[d]imidazole-6-carboxylic acid], 0.29 nM.
The result for `O=C(O)c1ccc2nc(Cc3cc(F)c(-c4cccc(OCc5nnc(OC6CCC6)s5)n4)cc3F)n(C[C@@H]3CCO3)c2c1` [Example 344, (S)-2-(4-(6-((5-cyclobutoxy-1,3,4-thiadiazol-2-yl)methoxy)pyridin-2-yl)-2,5-difluorobenzyl)-1-(oxetan-2-ylmethyl)-1H-benzo[d]imidazole-6-carboxylic acid] reads 0.055 nM; that for `O=C(O)c1ccc2nc(Cc3cc(F)c(-c4cccc(OCc5ccn(-c6ccc(F)cc6)n5)n4)cc3F)n(C[C@@H]3CCO3)c2c1` [Example 62, (S)-2-(2,5-difluoro-4-(6-((1-(4-fluorophenyl)-1H-pyrazol-3-yl)methoxy)pyridin-2-yl)benzyl)-1-(oxetan-2-ylmethyl)-1H-benzo[d]imidazole-6-carboxylic acid], 1.98 nM; that for `O=C(O)c1ccc2nc(Cc3cc(F)c(-c4cccc(OCc5ccn(-c6cnn(C(F)F)c6)n5)n4)cc3F)n(C[C@@H]3CCO3)c2c1` [Example 83, (S)-2-(4-(6-((1′-(difluoromethyl)-1′H-[1,4′-bipyrazol]-3-yl)methoxy)pyridin-2-yl)-2,5-difluorobenzyl)-1-(oxetan-2-ylmethyl)-1H-benzo[d]imidazole-6-carboxylic acid], 3.51 nM.
The result for `O=C(O)c1ccc2nc(Cc3cc(F)c(-c4ccc(F)c(OCc5ncc(C(F)(F)F)s5)n4)cc3F)n(C[C@@H]3CCO3)c2c1` [Example 370, (S)-2-(2,5-difluoro-4-(5-fluoro-6-((5-(trifluoromethyl)thiazol-2-yl)methoxy)pyridin-2-yl)benzyl)-1-(oxetan-2-ylmethyl)-1H-benzo[d]imidazole-6-carboxylic acid] reads 0.28 nM.
`Cn1cc(C#Cc2ccc(COc3cccc(-c4cc(F)c(Cc5nc6c(F)cc(C(=O)O)cc6n5C[C@@H]5CCO5)cc4F)n3)cn2)cn1` [Example 391, (S)-2-(2,5-difluoro-4-(6-((6-((1-methyl-1H-pyrazol-4-yl)ethynyl)pyridin-3-yl)methoxy)pyridin-2-yl)benzyl)-4-fluoro-1-(oxetan-2-ylmethyl)-1H-benzo[d]imidazole-6-carboxylic acid]: the EC50 amounted to 0.305 nM.
As to `O=C(O)c1ccc2nc(Cc3cc(F)c(-c4cccc(OCc5ncc(-c6ccc(C(F)(F)F)cc6)s5)n4)cc3F)n(C[C@H]3CCO3)c2c1` [Example 382, (R)-2-(2,5-difluoro-4-(6-((5-(4-(trifluoromethyl)phenyl)thiazol-2-yl)methoxy)pyridin-2-yl)benzyl)-1-(oxetan-2-ylmethyl)-1H-benzo[d]imidazole-6-carboxylic acid], the EC50 was 1.27 nM. This EC50 lies about 4.2-fold higher than the previous one.
The result for `Cn1cc(C#Cc2cc(F)c(COc3cccc(-c4cc(F)c(Cc5nc6ccc(C(=O)O)cc6n5C[C@@H]5CCO5)cc4F)n3)cn2)cn1` [Example 144, (S)-2-(2,5-difluoro-4-(6-((4-fluoro-6-((1-methyl-1H-pyrazol-4-yl)ethynyl)pyridin-3-yl)methoxy)pyridin-2-yl)benzyl)-1-(oxetan-2-ylmethyl)-1H-benzo[d]imidazole-6-carboxylic acid] reads 0.99 nM.
